What was measured:
HHV-6 = HHV-6 viral load in patient with post-transplant EBV positive lymphoma; type: in vivo, human; conditions: one patient; arginine butyrate and daily ganciclovir; after 3 weeks of treatment; before treatment (Week 1) 658,882
Description: (§1) Levels were determined before treatment (week1) and after 3 weeks of treatment (week 3).

[1] = tested on: relapsed or refractory EBV-positive lymphoid tumors; conditions: arginine butyrate and GCV; of 15 patients; cited from earlier work
EBV = EBV viral load in patient with post-transplant EBV positive lymphoma; type: in vivo, human; conditions: one patient; arginine butyrate and daily ganciclovir; after 3 weeks of treatment; before treatment (Week 1) 27,782
Description: as §1

CMV = CMV viral load in patient with post-transplant EBV positive lymphoma; type: in vivo, human; conditions: one patient; arginine butyrate and daily ganciclovir; after 3 weeks of treatment; before treatment (Week 1) 12,300
Description: as §1

[2] = tested on: viral TK (EBV thymidine kinase) transcript in P3HR1 cells; assay: Thymidine kinase (TK) mRNA expression assay, quantitative real-time RT-PCR; type: cell-based, human; conditions: 24 hrs exposure, mRNA by RT-PCR
Description: (§2) To measure whether Chidamide could induce EBV associated transcripts, the induction of mRNA for the protein kinases TK (FIG. 1A) and BGLF4 (FIG. 1B) in EBV-positive lymphoma cell lines was measured after exposure to different concentrations of the short-chain fatty acid, sodium butyrate (NaB), or the benzamide, chidamide (chid), for 24 hrs. Transcripts were quantitated by quantitative real-time RT-PCR.
(§3) The EBV-positive B lymphoma cell line P3HR1 was used in the study. The P3HR1 cell line was originally derived from Burkitt's lymphoma patient. EBV maintains a latent state of replication in this cell line. These cells were maintained in RPMI 1640 with 10% fetal bovine serum containing 100 U penicillin per ml and 100 μg streptomycin per ml.
(§4) P3HR1 cells were seeded in 60 mm plates containing 3×10^6 cells in 3 ml of fresh growth media. Appropriate concentrations of HDAC inhibitors were added to the plate and cells were incubated in the presence of HDAC inhibitors for 6 h, 24 h, 48 h, or as needed. Cells were harvested by centrifugation and washed once in cold PBS. Total cellular RNA was then extracted. To measure the relative level of TK mRNA in various total RNA preparations, reverse transcription and quantitative PCR using real time PCR analysis were used. […] The relative level of TK expression in a sample was calculated following normalization of β-actin expression level.

[3] = tested on: EBV-positive B lymphoma cell line P3HR1; assay: Drug sensitivity assay: HDAC inhibitor plus ganciclovir, viable cell count by trypan blue; type: cell-based, human; conditions: both combined with ganciclovir; living cells counted on day 6
Description: To determine tumor cytotoxic activity of the combination of HDACi and GCV, EBV+ lymphoma cells were exposed to a range of concentrations of sodium butyrate or chidamide […] for 3 days and then to GCV alone for another 3 days (FIG. 1C). Efficacy of either sodium butyrate or chidamide in the combination treatment approach was then determined by enumerating living cells. A general experimental protocol is described below.
as §3
To test the sensitivity of EBV-positive lymphoma cells towards chidamide, P3HR1 cells were treated with chidamide in the presence of one anti-viral drug. At the end of the assay, the efficacy of chidamide was assessed by measuring the inhibition of cell growth compared to untreated cells.
Healthy, actively-growing P3HR1 cells were harvested and resuspended in fresh growth media. Cells were seeded in wells. […] On day 6, cell morphology was observed under a microscope and viable cell counts in each individual well was determined by the trypan blue dye exclusion method using an automated cell counter (Countess, Invitrogen).

[4] = tested on: BGLF4 (EBV-PK) transcript in P3HR1 cells; assay: Protein kinase (BGLF4) mRNA expression assay, quantitative real-time RT-PCR; type: cell-based, human; conditions: 24 hrs exposure, mRNA by RT-PCR
Description: as §2, §3, §4

Compound	HHV-6 viral load, Week 3 (HHV-6) [Copies per mL]	patients who achieved complete tumor remissions [1] [patients]	patients who achieved partial tumor remissions [1] [patients]	EBV viral load, Week 3 (EBV)	CMV viral load, Week 3 (CMV)	concentration at which induction of viral TK expression begins [2] [nM]	concentration of chidamide as good in killing as 1.0 mM sodium butyrate [3]	concentration at which induction of BGLF4 expression begins [4] [nM]
arginine butyrate	805	4	6	1,486 Copies per mL	1,600 Copies per mL			
Nc1cc(F)ccc1NC(=O)c1ccc(CNC(=O)/C=C/c2cccnc2)cc1 [chidamide]						500	104	500

Reference: patent US20210046061A1, “METHODS AND COMPOSITIONS FOR TREATING HERPESVIRUS INDUCED CONDITIONS” (TRUSTEES OF BOSTON UNIVERSITY, priority 2015, published 2021)
